Assay results reported in US11271237B2, “Organic redox molecules for flow batteries” (UCHICAGO ARGONNE, LLC, priority 2019, dated 2022).
Values after ≈ are worked out from the molar mass of the structure shown.

Tests used:
[1] = in a carbonate-based electrolyte; cited from earlier work
[2] = Cyclic voltammetry in non-aqueous carbonate electrolyte; format: physicochemical; details: 10 mM in 1.5 M LiPF6 in EC/EMC 3:7 (v/v); glassy carbon working electrode, lithium metal counter and reference; iR-correction
Protocol: (§1) FIG. 3 provides cyclic voltammograms of 10 mM 4-(1,4-dioxabutyl)-2,2,6,6-tetramethylpiperidine-1-oxyl (TEMPO-EG1) in a non-aqueous electrolyte (1.5 M LiPF6 in a mixture of ethylene carbonate (EC) and ethyl methyl carbonate (EMC), 3:7 (v/v), respectively) at various scan rates given in mV/s. In FIG. 3, the cyclic voltammograms were measured at various rates with iR-correction applied. A glassy carbon electrode was used as the working electrode, while lithium metal strips were used as the counter and reference electrodes.
as §1, with “FIG. 4” for “FIG. 3”, “mM 4-(1,4,7-trioxaoctyl)-2,2,6,6-tetramethylpiperidine-1-oxyl (TEMPO-EG2)” for “mM 4-(1,4-dioxabutyl)-2,2,6,6-tetramethylpiperidine-1-oxyl (TEMPO-EG1)”, “FIG. 4,” for “FIG. 3,”
as §1, with “FIG. 5” for “FIG. 3”, “mM 4-(1,4,7,10-tetraoxaundecyl)-2,2,6,6-tetramethylpiperidine-1-oxyl (TEMPO-EG3)” for “mM 4-(1,4-dioxabutyl)-2,2,6,6-tetramethylpiperidine-1-oxyl (TEMPO-EG1)”, “FIG. 5,” for “FIG. 3,”

[3] = Viscosity measurement with RHEOSENSE microfluidic MEMS viscometer; format: physicochemical; details: neat liquid, 23.4° C., shear rates 500-5000 s^−1 (EG1, EG2) or 100-4000 s^−1 (EG3)
Protocol: The viscosities of liquid TEMPO derivatives were determined at 23.4° C. using a RHEOSENSE microfluidic and micro-electro-mechanical-systems (MEMS) viscometer. The RHEOSENSE viscometer is based on the viscometer-rheometer-on-a-chip (VROC) technology. For TEMPO-EG1 and EG2, shear rates were swept from 500 s^−1 to 5000 s^−1, while the viscosity of TEMPO-EG3 was measured from 100 s^−1 to 4000 s^−1. […] Longer glycol ether chains lead to increases in viscosity, but the impact differs drastically.

[4] = Cyclic voltammetry in aqueous electrolytes; format: physicochemical; details: for redox potential: Pt disk working electrode, Pt coil counter
Protocol: Cyclic voltammograms of 10 mM TEMPO-EG3 in an aqueous electrolyte (1 M aqueous sulfuric acid) were measured at various scan rates given in mV/s. A Pt disk was used as the working electrode, while the counter electrode was a Pt coil and the reference electrode was Ag/AgCl.
Cyclic voltammograms of 10 mM TEMPO-EG3 in an aqueous electrolyte (1M aqueous sodium chloride) were measured at various scan rates given in mV/s. A Pt disk was used as the working electrode, while the counter electrode was a Pt coil and the reference electrode was Ag/AgCl.

| SMILES | solubility [1] [M] | redox potential [2] [V vs. Li/Li^+] | viscosity [3] [mPa·s] | redox potential ([4]; 10 mM in 1M aqueous sodium chloride (neutral electrolyte)) | redox potential ([4]; 10 mM in 1 M aqueous sulfuric acid (acidic electrolyte)) | electrochemical reversibility ([4]; cyclic voltammetry in common aqueous electrolytes) |
| --- | --- | --- | --- | --- | --- | --- |
| COCCOc1cc(C(C)(C)C)c(OC)cc1C(C)(C)C [DBMMEB, 1,4-di-tert-butyl-2-methoxy-5-(2-rnethoxyethoxy)benzene] | 0.6 (≈ 177 mg/mL) |  |  |  |  |  |
| COCCOC1CC(C)(C)N([O])C(C)(C)C1 [TEMPO-EG1, 4-(2-methoxyethoxy)-2,2,6,6-tetramethylpiperidine-1-oxyl] |  | 3.53 | 10.23 |  |  |  |
| COCCOCCOC1CC(C)(C)N([O])C(C)(C)C1 [TEMPO-EG2, 4-(3,6-dioxaheptyloxy)-2,2,6,6-tetramethylpiperidine-1-oxyl] |  | 3.53 | 10.88 |  |  |  |
| COCCOCCOCCOC1CC(C)(C)N([O])C(C)(C)C1 [TEMPO-EG3, 4-(3,6,9-trioxadecyloxy)-2,2,6,6-tetramethylpiperidine-1-oxyl] |  | 3.53 | 21.30 | about 0.59 V vs. Ag/AgCl | about 0.55 V vs. Ag/AgCl | excellent electrochemical reversibility |
